Test results from PMC11701329, “Inhibition of the polyol pathway by Ducrosia anethifolia extract: plausible implications for diabetic retinopathy treatment” (Frontiers in Pharmacology, 2024).
In brackets after ≈: the same amount, converted by molar mass. One block for each compound: values may come before it.

Experiments:
[1] = target: T1, SD (sorbitol dehydrogenase); experiment: absorbance change at […] nm (NAD+ reduction); format: biochemical; conditions: 0.5 mM NAD+, 100 mM sorbitol, 100 mM Tris-HCl pH 9.0
T1 construct: gene SORD; purchased from Sigma-Aldrich; human recombinant cannot be excluded

[2] = tested on: T1, SD (sorbitol dehydrogenase); experiment: absorbance change at […] nm, Lineweaver-Burk; format: biochemical; conditions: no extract; 0.5 mM NAD+, sorbitol 50-250 mM, 100 mM Tris-HCl pH 9.0
O=CC(O)CO = experiment: purified protein; conditions: no extract, 0.15 mM NADPH, DL-glyceraldehyde 5-25 mM, 100 mM sodium phosphate pH 6.2

IC50 [1]: 8.14 ± 2.27 µg/mL (≈ 26.9 µM)
Compound: O=c1c(O)c(-c2ccc(O)c(O)c2)oc2cc(O)cc(O)c12 [quercetin]

Km [2]: 44.7 mM
Compound: OC[C@@H](O)[C@@H](O)[C@H](O)[C@@H](O)CO [sorbitol]

Compound: human recombinant AR (aldose reductase) (Homo sapiens)
Km (O=CC(O)CO): 5.51 mM
Vmax (O=CC(O)CO): 0.069 µM/min
